Data published in US10435376B2, “Derivatives of 1H-imidazole-4,5-dicarboxamide and use thereof in preparation of anticoccidial drugs” (GUANGZHOU INSIGHTER BIOTECHNOLOGY CO., LTD., priority 2015, dated 2019).

Legend:
Format in all cases: in vivo
Eimeria tenella [1] = assay: Inhibitory effects of the derivatives on Eimeria tenella of chicken (60 ppm in feed); details: for anticoccidial activity in view of survival rate, bloody stool score and relative weight gain: 60 ppm, E. tenella; for responders at 60 ppm, 60 µg/mL / response vs control in vivo at 60 ppm, 60 µg/mL: Eimeria tenella, 168 h; for responders at 60 ppm, 60 µg/mL / response vs control in vivo at 60 ppm, 60 µg/mL / Score (bloody stool score): broilers, 60 ppm in feed, 250,000 E. tenella oocysts; for responders at 60 ppm, 60 µg/mL: 7 days after inoculation, read-out: Survival rate (%); for response vs control in vivo at 60 ppm, 60 µg/mL: relative to group 1 (not infected, not treated), read-out: Relative weight gain (%); for Score (bloody stool score): 5 days after inoculation
Source text: (§1) One-day-old yellow-feather fast-growing broilers were raised in a coccidia-free environment, and divided into groups for trial at the age of 18 days when no coccidian oocysts were detected by microscopy in their faeceas. Weak or overweight broilers were removed, and healthy broilers were divided into 30 groups with 50 broilers in each group and weight difference between each two broilers was below 20 g. Groups 1 and 2 were respectively a control group that the broilers were neither infected nor treated, and a control group that the broilers were infected but not treated. Groups 3 to 30 were respectively administrated with different derivatives. The broilers were given ad libitum access to feed and water when the feed was added with different medicines according to Table 1 at the day the broilers were divided. 24 Hours after the trial began, 250,000 sporulated Eimeria tenella oocysts were inoculated via an oral gavage into the crop of every broiler in each group except group 1. Bloody stool score was measured 5 days after the inoculation and the trial was ended 7 days after the inoculation. Relative weight gain (%), survival rate (%) and the bloody stool score were evaluated.
(§2) Bloody stool score: 0, no bloody stool was observed; 1, bloody stool below 25%; 2, 25 to 50% of bloody stool; 3, 50 to 75% of bloody stool; and 4, bloody stool over 75%.
(§3) Relative weight gain (%): The broilers were weighed at the beginning and the end of the trial to calculate the average weight gain and relative weigh gain. Relative weight gain=(average weight gain of each group/average weight gain of group 1)×100%.
(§4) Deaths of the broilers: Necropsy was performed and the amount of dead broilers in each group was recorded to calculate the survival rate. Survival rate=(total amount of the broilers in each group−amount of deaths caused by coccidial infection)/total amount of the broilers in each group×100%.

Eimeria necatrix = assay: Inhibitory effects of the derivatives on Eimeria necatrix of chicken; details: for anticoccidial activity in view of survival rate, bloody stool score and relative weight gain: 60 ppm, E. necatrix; for responders at 60 ppm, 60 µg/mL / response vs control in vivo at 60 ppm, 60 µg/mL: Eimeria necatrix, 168 h; for responders at 60 ppm, 60 µg/mL: read-out: Survival rate (%); for response vs control in vivo at 60 ppm, 60 µg/mL: feed or water, read-out: Relative weight gain (%); for response vs control in vivo at 60 ppm, 60 µg/mL / Score (bloody stool score): broilers, 60 ppm in feed, 100,000 E. necatrix oocysts; for Score (bloody stool score): 5 days after inoculation
Procedure: as §2, §3, §4
as §1, with “into 10” for “into 30”, “to 10” for “to 30”, “Table 4” for “Table 1”, “began, 100,000” for “began, 250,000”, “Eimeria necatrix” for “Eimeria tenella”, “were evaluated (according to embodiment 2).” for “were evaluated.”

Eimeria tenella [2] = assay: Inhibitory effects of the derivatives of different dosages on Eimeria tenella of chicken; design: key to Score (bloody stool score): 0 = no bloody stool to 4 = bloody stool over 75%; details: broilers, E. tenella; for Score (bloody stool score): 5 days after inoculation
Procedure: as §2, §3, §4
as §1, with “divided into 16 groups with” for “divided into 30 groups with”, “3 to 16 were respectively” for “3 to 30 were respectively”, “with different kinds or different dosages of derivatives. The” for “with different derivatives. The”, “to Table 2 at the” for “to Table 1 at the”, “score were evaluated (according to embodiment 2).” for “score were evaluated.”

Eimeria acervulina = assay: Inhibitory effects of the derivatives on Eimeria acervulina of chicken; details: for anticoccidial activity in view of survival rate, relative weight gain and feed conversion ratio: 60 ppm, E. acervulina; for responders at 60 ppm, 60 µg/mL / response vs control in vivo at 60 ppm, 60 µg/mL: Eimeria acervulina, 168 h; for responders at 60 ppm, 60 µg/mL / response vs control in vivo at 60 ppm, 60 µg/mL / Feed conversion ratio: broilers, 60 ppm in feed, 400,000 E. acervulina oocysts; for responders at 60 ppm, 60 µg/mL: 7 days after inoculation, read-out: Survival rate (%); for response vs control in vivo at 60 ppm, 60 µg/mL: feed or water, read-out: Relative weight gain (%)
Procedure: as §3, §4
One-day-old yellow-feather fast-growing broilers were raised in a coccidia-free environment, and divided into groups for trial at the age of 18 days when no coccidian oocysts were detected by microscopy in their faeceas. Weak or overweight broilers were removed, and healthy broilers were divided into 10 groups with 50 broilers in each group and weight difference between each two broilers was below 20 g. Groups 1 and 2 were respectively a control group that the broilers were neither infected nor treated, and a control group that the broilers were infected but not treated. Groups 3 to 10 were respectively administrated with different derivatives. The broilers were given ad libitum access to feed and water when the feed was added with different medicines according to Table 3 at the day the broilers were divided. 24 Hours after the trial began, 400,000 sporulated Eimeria acervulina oocysts were inoculated via an oral gavage into the crop of every broiler in each group except group 1. The trial was ended 7 days after the inoculation. Relative weight gain (%), survival rate (%) and feed conversion ratio were evaluated.

NC(=O)c1ncn(Cc2ccc(C(F)(F)F)cc2)c1C(N)=O [IST15051, 1-(4-(trifluromethyl)benzyl)-1H-imidazole-4,5-dicarboxamide]
anticoccidial activity in view of survival rate, bloody stool score and relative weight gain (Eimeria tenella [1]): highest anticoccidial activities | responders at 60 ppm, 60 µg/mL (Eimeria tenella [1]): 100% | response vs control in vivo at 60 ppm, 60 µg/mL (Eimeria tenella [1]): 101% | Score (bloody stool score) (Eimeria tenella [1]): 0 | anticoccidial activity in view of survival rate, bloody stool score and relative weight gain (Eimeria necatrix): highest anticoccidial activities | responders at 60 ppm, 60 µg/mL (Eimeria necatrix): 100% | response vs control in vivo at 60 ppm, 60 µg/mL (Eimeria necatrix): 99.5% | Score (bloody stool score) (Eimeria necatrix): 0 | Relative weight gain (%) (Eimeria tenella [2]; 5 ppm in feed): 80.4% | Survival rate (%) (Eimeria tenella [2]; 5 ppm in feed): 96% | Score (bloody stool score) (Eimeria tenella [2]; 5 ppm in feed): 4 (bloody stool over 75%) | Relative weight gain (%) (Eimeria tenella [2]; 10 ppm in feed): 88.6% | Survival rate (%) (Eimeria tenella [2]; 10 ppm in feed): 100% | Score (bloody stool score) (Eimeria tenella [2]; 10 ppm in feed): 2 (25 to 50% of bloody stool) | Relative weight gain (%) (Eimeria tenella [2]; 20 ppm in feed): 95.9% | Survival rate (%) (Eimeria tenella [2]; 20 ppm in feed): 100% | Score (bloody stool score) (Eimeria tenella [2]; 20 ppm in feed): 0 | Relative weight gain (%) (Eimeria tenella [2]; 50 ppm in feed): 98.7% | Survival rate (%) (Eimeria tenella [2]; 50 ppm in feed): 100% | Score (bloody stool score) (Eimeria tenella [2]; 50 ppm in feed): 0 | Relative weight gain (%) (Eimeria tenella [2]; 100 ppm in feed): 101.2% | Survival rate (%) (Eimeria tenella [2]; 100 ppm in feed): 100% | Score (bloody stool score) (Eimeria tenella [2]; 100 ppm in feed): 0 | Relative weight gain (%) (Eimeria tenella [2]; 200 ppm in feed): 99.4% | Survival rate (%) (Eimeria tenella [2]; 200 ppm in feed): 100% | Score (bloody stool score) (Eimeria tenella [2]; 200 ppm in feed): 0 | Relative weight gain (%) (Eimeria tenella [2]; 500 ppm in feed): 103.6% | Survival rate (%) (Eimeria tenella [2]; 500 ppm in feed): 100% | Score (bloody stool score) (Eimeria tenella [2]; 500 ppm in feed): 0 | anticoccidial activity in view of survival rate, relative weight gain and feed conversion ratio (Eimeria acervulina): highest anticoccidial activities | responders at 60 ppm, 60 µg/mL (Eimeria acervulina): 100% | response vs control in vivo at 60 ppm, 60 µg/mL (Eimeria acervulina): 102% | Feed conversion ratio (Eimeria acervulina): 2.109

NC(=O)c1ncn(Cc2c(F)cccc2Cl)c1C(N)=O [IST15031, 1-(2-chloro-6-fluorobenzyl)-1H-imidazole-4,5-dicarboxamide]
anticoccidial activity in view of survival rate, bloody stool score and relative weight gain (Eimeria tenella [1]): highest anticoccidial activities | responders at 60 ppm, 60 µg/mL (Eimeria tenella [1]): 100% | response vs control in vivo at 60 ppm, 60 µg/mL (Eimeria tenella [1]): 95.8% | Score (bloody stool score) (Eimeria tenella [1]): 1 (bloody stool below 25%) | anticoccidial activity in view of survival rate, bloody stool score and relative weight gain (Eimeria necatrix): highest anticoccidial activities | responders at 60 ppm, 60 µg/mL (Eimeria necatrix): 100% | response vs control in vivo at 60 ppm, 60 µg/mL (Eimeria necatrix): 92.5% | Score (bloody stool score) (Eimeria necatrix): 1 (bloody stool below 25%) | Relative weight gain (%) (Eimeria tenella [2]; 5 ppm in feed): 67.8% | Survival rate (%) (Eimeria tenella [2]; 5 ppm in feed): 76% | Score (bloody stool score) (Eimeria tenella [2]; 5 ppm in feed): 4 (bloody stool over 75%) | Relative weight gain (%) (Eimeria tenella [2]; 10 ppm in feed): 72.3% | Survival rate (%) (Eimeria tenella [2]; 10 ppm in feed): 88% | Score (bloody stool score) (Eimeria tenella [2]; 10 ppm in feed): 4 (bloody stool over 75%) | Relative weight gain (%) (Eimeria tenella [2]; 20 ppm in feed): 79.8% | Survival rate (%) (Eimeria tenella [2]; 20 ppm in feed): 100% | Score (bloody stool score) (Eimeria tenella [2]; 20 ppm in feed): 2 (25 to 50% of bloody stool) | Relative weight gain (%) (Eimeria tenella [2]; 50 ppm in feed): 90.5% | Survival rate (%) (Eimeria tenella [2]; 50 ppm in feed): 100% | Score (bloody stool score) (Eimeria tenella [2]; 50 ppm in feed): 1 (bloody stool below 25%) | Relative weight gain (%) (Eimeria tenella [2]; 100 ppm in feed): 98.9% | Survival rate (%) (Eimeria tenella [2]; 100 ppm in feed): 100% | Score (bloody stool score) (Eimeria tenella [2]; 100 ppm in feed): 0 | Relative weight gain (%) (Eimeria tenella [2]; 200 ppm in feed): 102.5% | Survival rate (%) (Eimeria tenella [2]; 200 ppm in feed): 100% | Score (bloody stool score) (Eimeria tenella [2]; 200 ppm in feed): 0 | Relative weight gain (%) (Eimeria tenella [2]; 500 ppm in feed): 100.4% | Survival rate (%) (Eimeria tenella [2]; 500 ppm in feed): 100% | Score (bloody stool score) (Eimeria tenella [2]; 500 ppm in feed): 0 | anticoccidial activity in view of survival rate, relative weight gain and feed conversion ratio (Eimeria acervulina): highest anticoccidial activities | responders at 60 ppm, 60 µg/mL (Eimeria acervulina): 100% | response vs control in vivo at 60 ppm, 60 µg/mL (Eimeria acervulina): 94.8% | Feed conversion ratio (Eimeria acervulina): 2.179
